How the values were obtained:
[1] = in vivo; conditions: mouse, po, mice
[2] = Stability of CBD at room temperature and in the dark; format: physicochemical; conditions: room temperature; for degradation of CBD: 3 months
[3] = in vivo; conditions: rat, po, rats
[4] = after oral administration; cited from earlier work
[5] = kinetic detection (oral bioavailability), sesame oil alone
[6] = oral bioavailability, administered as an unformulated oil extract
[7] = oral bioavailability, formulated (mixture of sesame oil, amaranth oil and squalene)

C=C(C)[C@@H]1CCC(C)=C[C@H]1c1c(O)cc(CCCCC)cc1O [CBD, cannabidiol]
bioavailability [1, 5]: 25 to 30%
bioavailability [1, 6]: 5 to 6%
bioavailability [1, 7]: ~50%
degradation of CBD ([2]; CBD from ethanolic cannabis extract formulated in a mixture of sesame oil, amaranth and squalene (at least 0.1%)): 3%
degradation of CBD ([2]; CBD in products obtained by ethanolic extraction from cannabis): 8%
degradation of CBD ([2]; CBD in pure form (both amorphous and crystalline)): 11%
degradation of CBD ([2]; pure CBD formulated in a mixture of sesame oil, amaranth and squalene (at least 0.1%)): 4%
instability compared with unformulated CBD ([2]; CBD solubilised in sesame oil or amaranth oil or in squalene alone): did not show a statistically significant difference
bioavailability [3, 5]: 25 to 30%
bioavailability [3, 6]: 5 to 6%
bioavailability [3, 7]: ~60%
time to reach peak plasma concentration [4]: 1 to 4 h

— patent US20240261305A1 (priority 2021, published 2024)
